# Results published in US20070203073A1 (priority 2005, published 2007).
# “Also recorded” adds a separate entry of the source. Where a SMILES comes first, the peptide text is derived from it. [ ]: non-standard residue; d: D form. The star is where a group is joined. Sta = CC(C)C[C@H](N)[C@@H](O)CC(=O)O; Isovaleryl = CC(C)CC(=O)*; Cbz = O=C(OCc1ccccc1)*; CH2F = FC*
# How the values were obtained:
# SARS-CoV S protein [1] = assay: microbe, parasite or virus in culture; format: cell-based
# VSV-G = format: cell-based
# thrombin = conditions: read-out: Ki, inhibition of thrombin; cited from earlier work
# caspase 4 [2] = molecular target: T1, caspase 4 (Homo sapiens, UniProt P49662); assay: biochemical
# T1 sequence (P49662 81-270 limits assumed): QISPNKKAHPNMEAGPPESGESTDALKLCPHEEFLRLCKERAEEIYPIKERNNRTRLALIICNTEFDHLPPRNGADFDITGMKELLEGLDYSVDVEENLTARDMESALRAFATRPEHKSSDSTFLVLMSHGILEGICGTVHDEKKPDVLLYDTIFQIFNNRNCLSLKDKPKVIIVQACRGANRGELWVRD
# T1 sequence (P49662 290-377 limits assumed): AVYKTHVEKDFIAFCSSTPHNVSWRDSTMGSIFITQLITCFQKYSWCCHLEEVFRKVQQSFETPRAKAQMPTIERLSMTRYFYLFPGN
# caspase 4 [3] = molecular target: T1, caspase 4; format: biochemical
# caspase 2 [4] = molecular target: T2, caspase 2 (Homo sapiens, UniProt P42575); assay: biochemical
# T2 sequence (P42575 170-325 limits assumed): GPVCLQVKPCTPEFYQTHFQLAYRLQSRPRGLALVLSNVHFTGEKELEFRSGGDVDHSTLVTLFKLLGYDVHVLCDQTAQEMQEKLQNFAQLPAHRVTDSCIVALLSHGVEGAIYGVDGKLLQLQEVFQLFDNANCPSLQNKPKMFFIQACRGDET
# T2 sequence (P42575 348-452 limits assumed): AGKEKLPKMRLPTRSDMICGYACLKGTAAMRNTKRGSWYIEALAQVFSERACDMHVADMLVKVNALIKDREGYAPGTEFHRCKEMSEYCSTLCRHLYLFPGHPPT
# caspase 2 [5] = molecular target: T2, caspase 2; format: biochemical
# caspase 6 [6] = molecular target: T3, caspase 6 (Homo sapiens, UniProt P55212); assay: biochemical
# T3 sequence (P55212 24-179 limits assumed): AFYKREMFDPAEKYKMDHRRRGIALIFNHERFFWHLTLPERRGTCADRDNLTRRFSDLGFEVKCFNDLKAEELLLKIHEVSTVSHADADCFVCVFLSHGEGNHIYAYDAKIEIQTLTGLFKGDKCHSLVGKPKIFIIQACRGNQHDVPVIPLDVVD
# T3 sequence (P55212 194-293 limits assumed): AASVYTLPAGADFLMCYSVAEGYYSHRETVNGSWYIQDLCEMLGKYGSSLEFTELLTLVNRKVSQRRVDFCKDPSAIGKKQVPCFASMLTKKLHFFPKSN
# caspase 6 [7] = molecular target: T3, caspase 6; format: biochemical
# EboV GP glycoprotein = format: cell-based
# MLV-Amphotropic Env = format: cell-based
# human cathepsin L = human cathepsin L (Homo sapiens, UniProt P07711); format: biochemical
# human cathepsin L, sequence (P07711 114-333): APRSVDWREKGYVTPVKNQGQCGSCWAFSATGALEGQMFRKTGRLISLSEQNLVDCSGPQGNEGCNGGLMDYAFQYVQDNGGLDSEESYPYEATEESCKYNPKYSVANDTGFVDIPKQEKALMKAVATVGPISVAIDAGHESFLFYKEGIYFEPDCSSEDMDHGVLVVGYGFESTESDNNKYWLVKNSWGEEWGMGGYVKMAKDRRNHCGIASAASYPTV
# SARS-CoV S protein [8] = format: cell-based
# SARS-CoV (strain Tor2) = format: cell-based
# ASLV-A Env = format: cell-based
# [9] = IC50 against the three caspases (range stated for all)
molecule,measurement,setting,value
CCCNC(=O)[C@H]1O[C@@H]1C(=O)N[C@H](C(=O)N1CCC[C@H]1C(=O)O)[C@@H](C)CC [CA-074],effect on infection of HIV-luc(SARS S),SARS-CoV S protein [1],did not dramatically affect infection
same,effect on infection of HIV-luc(VSV-G),VSV-G,did not dramatically affect infection
N=C(N)c1ccccc1 [benzamidine],Ki,thrombin,300 to 1000 µM
aprotinin,effect on infection by pseudotypes bearing S protein,SARS-CoV S protein [1],had no effect
"CC1=NN(c2ccccc2)C(=O)C1=NNc1c(Br)cc(Br)cc1Br [compound 1, 5-methyl-2-phenyl-4-[(2,4,6-tribromo-phenyl)-hydrazono]-2,4-dihydro-pyrazol-3-one]",inhibition,caspase 4 [2],100%
same,IC50,caspase 4 [2]; IC50 against caspase 4,~500 µM
same,IC50,caspase 4 [2]; [9],500 to 5000 µM
same,substrate conversion in microarray screen,caspase 4 [3],reduced substrate conversion
same,inhibition,caspase 2 [4],100%
same,IC50,caspase 2 [4]; IC50 against caspase 2,~5000 µM
same,IC50,caspase 2 [4]; [9],500 to 5000 µM
same,substrate conversion in microarray screen,caspase 2 [5],reduced substrate conversion
same,inhibition,caspase 6 [6],100%
same,IC50,caspase 6 [6]; IC50 against caspase 6,~5000 µM
same,IC50,caspase 6 [6]; [9],500 to 5000 µM
same,substrate conversion in microarray screen,caspase 6 [7],low substrate conversion
"CC(C)[C@H](NC(=O)OCc1ccccc1)C(=O)N[C@H](C=O)Cc1ccccc1 [MDL 28170, Z-Val-Phe-CHO] (Cbz-Val-Phe-aldehyde)",effect on SARS CoV S pseudotype entry/infection,SARS-CoV S protein [1],inhibits entry; also recorded: potently and specifically inhibits pseudotype infection
same,IC50,"SARS-CoV S protein [1]; read-out: IC50, pseudotype virion entry into cells",~0.1 µM
same,effect on EboV GP pseudotype entry/infection,EboV GP glycoprotein,inhibits entry; also recorded: potently and specifically inhibits pseudotype infection
same,effect on MLV pseudotype entry,MLV-Amphotropic Env,not inhibited
same,effect on VSV pseudotype entry,VSV-G,not inhibited
same,hit in cathepsin L microarray screen,human cathepsin L,inhibitors and hits
CC(C)CC(=O)N[C@H](C(=O)N[C@H](C(=O)N[C@@H](CC(C)C)[C@@H](O)CC(=O)N[C@@H](C)C(=O)N[C@@H](CC(C)C)[C@@H](O)CC(=O)O)C(C)C)C(C)C [pepstatin] (Isovaleryl-VV[Sta]A[Sta]-OH),effect on infection by pseudotypes bearing S protein,SARS-CoV S protein [1],had no effect
same,effect on VSV-G mediated infection,VSV-G,had no effect
Cl.N [ammonium chloride],effect on infection mediated by S protein,SARS-CoV S protein [1],dramatically reduced infection
same,effect on infection mediated by VSV-G,VSV-G,dramatically reduced infection
CC(=O)N[C@@H](CC(C)C)C(=O)N[C@@H](CC(C)C)C(=O)N[C@H](C=O)CCCNC(=N)N [leupeptin],effect on S protein-mediated intervirion fusion (luciferase activity),SARS-CoV S protein [8],S protein-mediated fusion was lost
same,concentration necessary to achieve 95% inhibition of S protein-mediated entry,SARS-CoV S protein [1],100 µg/mL
same,inhibition at 10 µg/mL,"SARS-CoV S protein [1]; Severe acute respiratory syndrome coronavirus, HEK-293T, 10 μg/ml, read-out: inhibition of entry mediated by SARS-CoV S protein",> 95%
same,effect on SARS-CoV replication,SARS-CoV (strain Tor2),little or no effect
same,effect on infection by replication-competent SARS-CoV,SARS-CoV (strain Tor2),inhibited
same,effect on ASLV-A Env mediated infection,ASLV-A Env,no effect
same,effect on infection mediated by MLV-Amphotropic Env,MLV-Amphotropic Env,not inhibited
same,effect on infection mediated by VSV-G,VSV-G,not inhibited
same,hit in cathepsin L microarray screen,human cathepsin L,inhibitors and hits
"CC(C)C[C@H](NC(=O)[C@H](CC(C)C)NC(=O)[C@H](CC(C)C)NC(=O)OCc1ccccc1)C(=O)CF [Z-LLL-FMK, Z-leu-leu-leu-fluoromethyl ketone] (Cbz-Leu-Leu-Leu-CH2F)",effect on infection of HIV-luc(SARS S),SARS-CoV S protein [1],efficiently inhibited infection
same,effect on infection of HIV-luc(VSV-G),VSV-G,but not HIV-luc(VSV-G)
